Results taken from patent publication US6737383B1, “Herbicidal oxadiazolidines” (priority 1999, dated 2004).

Tests used:
[1] = tested on: bedstraw; test: Test B pre/postemergence bedstraw; type: in vivo, Galium aparine
How it was run: (§1)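 Test chemicals in a non-phytotoxic solvent mixture with surfactant were sprayed preemergence onto planted seeds and postemergence onto plants 2 to 18 cm tall (1- to 4-leaf stage). After twelve to sixteen days in a greenhouse, injury was visually rated against untreated controls from 0 (no effect) to 10 (complete control).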

[2] = tested on: surinam grass; test: Test B pre/postemergence surinam grass; type: in vivo, Brachiaria decumbens
How it was run: as §1

[3] = tested on: cocklebur; test: Test B pre/postemergence cocklebur; type: in vivo, Xanthium strumarium
How it was run: as §1

[4] = tested on: corn; test: Test B pre/postemergence corn; type: in vivo, Zea mays
How it was run: as §1

[5] = tested on: giant foxtail; test: Test B pre/postemergence giant foxtail; type: in vivo, Setaria faberii
How it was run: as §1

[6] = tested on: pigweed; test: Test B pre/postemergence pigweed; type: in vivo, Amaranthus retroflexus
How it was run: as §1

[7] = tested on: rape; test: Test B pre/postemergence rape; type: in vivo, Brassica napus
How it was run: as §1

[8] = tested on: soybean; test: Test B pre/postemergence soybean; type: in vivo, Glycine max
How it was run: as §1

[9] = tested on: sugar beet; test: Test B pre/postemergence sugar beet; type: in vivo, Beta vulgaris
How it was run: as §1

[10] = tested on: velvetleaf; test: Test B pre/postemergence velvetleaf; type: in vivo, Abutilon theophrasti
How it was run: as §1

[11] = tested on: wheat; test: Test B pre/postemergence wheat; type: in vivo, Triticum aestivum
How it was run: as §1

[12] = tested on: wild oat; test: Test B pre/postemergence wild oat; type: in vivo, Avena fatua
How it was run: as §1

[13] = tested on: purple nutsedge; test: Test B pre/postemergence purple nutsedge; type: in vivo, Cyperus rotundus
How it was run: as §1

[14] = tested on: rice; test: Test B flood test rice; type: in vivo, Oryza sativa
How it was run: (§2)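 Read-out is a visual response score from 0 (no effect) to 10 (complete control), assigned by comparison with untreated controls. Treatment was applied at the 2-leaf stage, and plants stayed in the greenhouse for twelve to sixteen days before scoring.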

[15] = tested on: smallflower flatsedge; test: Test B flood test smallflower flatsedge; type: in vivo, Cyperus difformis
How it was run: as §2

[16] = tested on: duck salad; test: Test B flood test duck salad; type: in vivo, Heteranthera limosa
How it was run: as §2

[17] = Preemergence, Rate 62 g/ha, scale of 0 to 10 where 0 is no effect and 10 is complete control
[18] = Preemergence, Rate 250 g/ha, scale of 0 to 10 where 0 is no effect and 10 is complete control
[19] = Preemergence, Rate 500 g/ha, scale of 0 to 10 where 0 is no effect and 10 is complete control
[20] = Rate 62 g/ha, Postemergence, scale of 0 to 10 where 0 is no effect and 10 is complete control
[21] = Rate 125 g/ha, Postemergence, scale 0 to 10
[22] = Rate 125 g/ha, Preemergence, scale of 0 to 10 where 0 is no effect and 10 is complete control
[23] = Rate 500 g/ha, Postemergence, scale 0 to 10, 0 no effect, 10 complete control
[24] = Rate 125 g/ha, Postemergence, scale 0 (no effect) to 10 (complete control)
[25] = Rate 62 g/ha, headed Pre-emergence (flood test species), scale 0 to 10 (0 no effect, 10 complete control)
[26] = Rate 125 g/ha, Pre-emergence, flood test species, scale 0 to 10 where 0 is no effect and 10 is complete control
[27] = Rate 250 g/ha, Pre-emergence, flood-test species, scale 0 to 10, 0 is no effect, 10 is complete control
[28] = Rate 500 g/ha, Pre-emergence, flood test species, scale 0 to 10 (0 no effect, 10 complete control)

CCC(C)N(C(=O)n1oc(=O)n(-c2ccccc2C)c1=O)c1ccc(F)cc1 (stereo not drawn) [Compound 239]
Bedstraw plant response rating [1, 17]: 0
Bedstraw plant response rating [1, 18]: 0
Plant response rating, Bedstraw [1, 19]: 0
Bedstraw plant response rating [1, 20]: 0
Bedstraw plant response rating [1, 21]: 3
Bedstraw plant response rating [1, 22]: 0
Plant response rating (0 to 10; 0 is no effect, 10 is complete control), Bedstraw ([1]; Rate 250 g/ha, Postemergence): 3
Bedstraw plant response rating [1, 23]: 3
B. signalgrass plant response rating [2, 17]: 0
B. signalgrass plant response rating ([2]; Preemergence, Rate 250 g/ha, scale 0 to 10, 0 is no effect, 10 is complete control): 4
Plant response rating, B. signalgrass [2, 19]: 5
B. signalgrass plant response rating [2, 20]: 0
B. signalgrass plant response rating [2, 24]: 0
B. signalgrass plant response rating [2, 22]: 0
Plant response rating (0 to 10; 0 is no effect, 10 is complete control), B. signalgrass ([2]; Rate 250 g/ha, Postemergence): 0
B. signalgrass plant response rating [2, 23]: 0
Cocklebur plant response rating [3, 17]: 0
Cocklebur plant response rating [3, 18]: 0
Plant response rating, Cocklebur [3, 19]: 0
Cocklebur plant response rating [3, 20]: 0
Cocklebur plant response rating [3, 21]: 1
Cocklebur plant response rating [3, 22]: 0
Plant response rating (0 to 10; 0 is no effect, 10 is complete control), Cocklebur ([3]; Rate 250 g/ha, Postemergence): 1
Cocklebur plant response rating [3, 23]: 1
Corn plant response rating [4, 17]: 0
Corn plant response rating [4, 18]: 0
Plant response rating, Corn [4, 19]: 0
Corn plant response rating [4, 20]: 0
Corn plant response rating [4, 21]: 0
Corn plant response rating [4, 22]: 0
Plant response rating (0 to 10; 0 is no effect, 10 is complete control), Corn ([4]; Rate 250 g/ha, Postemergence): 0
Corn plant response rating [4, 23]: 0
Giant foxtail plant response rating [5, 17]: 4
Giant foxtail plant response rating [5, 18]: 10
Plant response rating, Giant foxtail [5, 19]: 10
Giant foxtail plant response rating [5, 20]: 0
Giant foxtail plant response rating [5, 22]: 10
Plant response rating (0 to 10; 0 is no effect, 10 is complete control), Giant foxtail ([5]; Rate 250 g/ha, Postemergence): 1
Giant foxtail plant response rating [5, 23]: 6
Redroot pigweed plant response rating [6, 17]: 0
Redroot pigweed plant response rating [6, 18]: 0
Plant response rating, Redroot pigweed [6, 19]: 0
Redroot pigweed plant response rating [6, 20]: 0
Redroot pigweed plant response rating [6, 22]: 0
Plant response rating (0 to 10; 0 is no effect, 10 is complete control), Redroot pigweed ([6]; Rate 250 g/ha, Postemergence): 3
Redroot pigweed plant response rating [6, 23]: 7
Rape plant response rating [7, 17]: 0
Rape plant response rating [7, 18]: 0
Plant response rating, Rape [7, 19]: 0
Rape plant response rating [7, 20]: 0
Rape plant response rating [7, 22]: 0
Plant response rating (0 to 10; 0 is no effect, 10 is complete control), Rape ([7]; Rate 250 g/ha, Postemergence): 0
Rape plant response rating [7, 23]: 0
Soybean plant response rating [8, 17]: 0
Soybean plant response rating [8, 18]: 0
Plant response rating, Soybean [8, 19]: 0
Soybean plant response rating [8, 20]: 1
Soybean plant response rating [8, 22]: 0
Soybean plant response rating [8, 23]: 3
Sugarbeets plant response rating [9, 17]: 0
Sugarbeets plant response rating [9, 18]: 0
Plant response rating, Sugarbeets [9, 19]: 0
Sugarbeets plant response rating [9, 20]: 0
Sugarbeets plant response rating [9, 22]: 0
Sugarbeets plant response rating [9, 23]: 0
Velvetleaf plant response rating [10, 17]: 0
Velvetleaf plant response rating [10, 18]: 2
Plant response rating, Velvetleaf [10, 19]: 5
Velvetleaf plant response rating [10, 20]: 0
Velvetleaf plant response rating [10, 22]: 0
Velvetleaf plant response rating [10, 23]: 3
Wheat plant response rating [11, 17]: 0
Wheat plant response rating [11, 18]: 0
Plant response rating, Wheat [11, 19]: 2
Wheat plant response rating [11, 20]: 0
Wheat plant response rating [11, 22]: 0
Wheat plant response rating [11, 23]: 0
Wild oats plant response rating [12, 17]: 0
Wild oats plant response rating [12, 18]: 3
Plant response rating, Wild oats [12, 19]: 3
Wild oats plant response rating [12, 20]: 0
Wild oats plant response rating [12, 22]: 0
Wild oats plant response rating [12, 23]: 0
Nutsedge plant response rating [13, 17]: 0
Plant response rating, Nutsedge [13, 19]: 0
Nutsedge plant response rating [13, 20]: 0
Nutsedge plant response rating [13, 22]: 0
Plant response rating (0 to 10; 0 is no effect, 10 is complete control), Nutsedge ([13]; Rate 250 g/ha, Postemergence): 0
Nutsedge plant response rating [13, 23]: 0
Rice plant response rating [14, 25]: 0
Rice plant response rating [14, 26]: 0
Rice plant response rating [14, 27]: 0
Rice plant response rating [14, 28]: 0
S. Flatsedge plant response rating [15, 25]: 0
S. Flatsedge plant response rating [15, 26]: 0
S. Flatsedge plant response rating [15, 27]: 0
S. Flatsedge plant response rating [15, 28]: 0
Ducksalad plant response rating [16, 25]: 0
Ducksalad plant response rating [16, 26]: 0
Ducksalad plant response rating [16, 27]: 0
Ducksalad plant response rating [16, 28]: 0

CC(C)N(C(=O)n1oc(=O)n(C2CC2)c1=O)c1ccccc1 [Compound 243]
Bedstraw plant response rating [1, 17]: 0
Bedstraw plant response rating [1, 18]: 5
Plant response rating, Bedstraw [1, 19]: 9
Bedstraw plant response rating [1, 20]: 0
Bedstraw plant response rating [1, 21]: 4
Bedstraw plant response rating [1, 22]: 0
Plant response rating (0 to 10; 0 is no effect, 10 is complete control), Bedstraw ([1]; Rate 250 g/ha, Postemergence): 5
Bedstraw plant response rating [1, 23]: 5
B. signalgrass plant response rating [2, 17]: 4
B. signalgrass plant response rating [2, 18]: 7
Plant response rating, B. signalgrass [2, 19]: 10
B. signalgrass plant response rating [2, 20]: 0
B. signalgrass plant response rating [2, 24]: 4
B. signalgrass plant response rating [2, 22]: 5
Plant response rating (0 to 10; 0 is no effect, 10 is complete control), B. signalgrass ([2]; Rate 250 g/ha, Postemergence): 9
B. signalgrass plant response rating [2, 23]: 9
Cocklebur plant response rating [3, 17]: 0
Cocklebur plant response rating [3, 18]: 0
Plant response rating, Cocklebur [3, 19]: 5
Cocklebur plant response rating [3, 20]: 0
Cocklebur plant response rating [3, 21]: 2
Cocklebur plant response rating [3, 22]: 0
Plant response rating (0 to 10; 0 is no effect, 10 is complete control), Cocklebur ([3]; Rate 250 g/ha, Postemergence): 4
Cocklebur plant response rating [3, 23]: 0
Corn plant response rating [4, 17]: 2
Corn plant response rating [4, 18]: 6
Plant response rating, Corn [4, 19]: 9
Corn plant response rating [4, 20]: 0
Corn plant response rating [4, 21]: 2
Corn plant response rating [4, 22]: 3
Plant response rating (0 to 10; 0 is no effect, 10 is complete control), Corn ([4]; Rate 250 g/ha, Postemergence): 5
Corn plant response rating [4, 23]: 7
Giant foxtail plant response rating [5, 17]: 10
Giant foxtail plant response rating [5, 18]: 10
Plant response rating, Giant foxtail [5, 19]: 10
Giant foxtail plant response rating [5, 20]: 3
Giant foxtail plant response rating [5, 22]: 10
Plant response rating (0 to 10; 0 is no effect, 10 is complete control), Giant foxtail ([5]; Rate 250 g/ha, Postemergence): 8
Giant foxtail plant response rating [5, 23]: 8
Redroot pigweed plant response rating [6, 17]: 6
Redroot pigweed plant response rating [6, 18]: 10
Plant response rating, Redroot pigweed [6, 19]: 10
Redroot pigweed plant response rating [6, 20]: 2
Redroot pigweed plant response rating [6, 22]: 9
Plant response rating (0 to 10; 0 is no effect, 10 is complete control), Redroot pigweed ([6]; Rate 250 g/ha, Postemergence): 7
Redroot pigweed plant response rating [6, 23]: 7
Rape plant response rating [7, 17]: 0
Rape plant response rating [7, 18]: 9
Plant response rating, Rape [7, 19]: 10
Rape plant response rating [7, 20]: 0
Rape plant response rating [7, 22]: 5
Plant response rating (0 to 10; 0 is no effect, 10 is complete control), Rape ([7]; Rate 250 g/ha, Postemergence): 2
Rape plant response rating [7, 23]: 3
Soybean plant response rating [8, 17]: 0
Soybean plant response rating [8, 18]: 8
Plant response rating, Soybean [8, 19]: 9
Soybean plant response rating [8, 20]: 3
Soybean plant response rating [8, 22]: 0
Soybean plant response rating [8, 23]: 8
Sugarbeets plant response rating [9, 17]: 2
Sugarbeets plant response rating [9, 18]: 7
Plant response rating, Sugarbeets [9, 19]: 10
Sugarbeets plant response rating [9, 20]: 0
Sugarbeets plant response rating [9, 22]: 3
Sugarbeets plant response rating [9, 23]: 5
Velvetleaf plant response rating [10, 17]: 4
Velvetleaf plant response rating [10, 18]: 10
Plant response rating, Velvetleaf [10, 19]: 10
Velvetleaf plant response rating [10, 20]: 0
Velvetleaf plant response rating [10, 22]: 6
Velvetleaf plant response rating [10, 23]: 7
Wheat plant response rating [11, 17]: 5
Wheat plant response rating [11, 18]: 8
Plant response rating, Wheat [11, 19]: 9
Wheat plant response rating [11, 20]: 2
Wheat plant response rating [11, 22]: 8
Wheat plant response rating [11, 23]: 8
Wild oats plant response rating [12, 17]: 3
Wild oats plant response rating [12, 18]: 9
Plant response rating, Wild oats [12, 19]: 9
Wild oats plant response rating [12, 20]: 0
Wild oats plant response rating [12, 22]: 6
Wild oats plant response rating [12, 23]: 4
Nutsedge plant response rating [13, 17]: 0
Nutsedge plant response rating [13, 18]: 0
Nutsedge plant response rating [13, 20]: 0
Nutsedge plant response rating [13, 22]: 0
Nutsedge plant response rating [13, 23]: 7
Rice plant response rating [14, 25]: 0
Rice plant response rating [14, 26]: 0
Rice plant response rating [14, 27]: 0
Rice plant response rating [14, 28]: 0
S. Flatsedge plant response rating [15, 25]: 0
S. Flatsedge plant response rating [15, 26]: 0
S. Flatsedge plant response rating [15, 27]: 0
S. Flatsedge plant response rating [15, 28]: 0
Ducksalad plant response rating [16, 25]: 0
Ducksalad plant response rating [16, 26]: 0
Ducksalad plant response rating [16, 27]: 0
Ducksalad plant response rating [16, 28]: 0
